A value given as a limit tells only on which side of the number the result lay.

This assay has as its system proMMP-9 production by human TNFα stimulated THP-1 cell. Kind of assay: Action on proMMP-9 production by human TNFα stimulated THP-1 cell (ELISA of culture supernatant). Format: cell-based. To be noted: THP-1 cells, human TNFα 10 ng/mL, 24 hr; IC50 from 3 concentrations (5, 50, 500 or 1, 10, 100 nmol/L); read-out: proMMP-9 suppression rate IC50. The protocol: Experimental Example 1: Action of Human TNFα Stimulated THP-1 Cell on proMMP-9 Production
THP-1 cell (human monocytic leukemia cell line) was adjusted to 1×10^7 cells/mL in a culture medium (10% fetal bovine serum/RPMI1640 medium), and dispensed to a 96 well multiplate. This was equilibrated under the conditions of 37° C./5% CO2, and a culture medium containing human TNFα (final concentration 10 ng/mL) and a test compound was dissolved therein. After incubation under the conditions of 37° C./5% CO2 for 24 hr, the culture medium was centrifuged and the culture supernatant was collected, which was subjected to the following measurement.
Quantification of proMMP-9 in Culture Supernatant
The proMMP-9 concentration of the collected culture supernatant was quantified using a commercially available measurement reagent (manufactured by GE Healthcare, MMP-9, Human, Biotrak ELISA System).
Calculation of proMMP-9 Suppression Rate
The proMMP-9 suppression rate of the test compound was calculated from the following formula: % suppression=100−((Test−Min)/(Max−Min)×100) wherein Max is proMMP-9 concentration of culture supernatant induced by stimulation with human TNFα, without addition of a test compound (added with solvent alone) Min is proMMP-9 concentration of culture supernatant without addition of a test compound (added with solvent alone) and without stimulation with human TNFα, and Test is proMMP-9 concentration of culture supernatant induced by stimulation with human TNFα when a test compound is added.
Furthermore, the concentration of the test compound necessary for suppressing proMMP-9 production by human TNFα stimulated THP-1 cell by 50% (IC50 value) was calculated from 3 points of proMMP-9 suppression rate at test compound concentrations of 5, 50 and 500 nmol/L or 1, 10 and 100 nmol/L.
MMP-9 is produced as a precursor proMMP-9 by the stimulated cells, extracellularly activated and expresses the physiological activity as MMP-9. That is, evaluation of the suppression of proMMP-9 produced by the cell means evaluation of the suppression of production of MMP-9. The same applies to MMP-2, and evaluation of the suppression of proMMP-2 produced by the cell means evaluation of the suppression of production of MMP-2.
(In an ELISA, binding on a coated surface is turned into a signal by an enzyme label.)

As for `Cc1cnc(N2CCN(C(=O)c3ccc(C4(C(C)(C)C)NC(=O)NC4=O)cn3)CC2)c(C)c1` (stereo not drawn) [Example 335, 5-tert-butyl-5-{6-[4-(3,5-dimethylpyridin-2-yl)piperazine-1-carbonyl]pyridin-3-yl}imidazolidine-2,4-dione], the concentration for half-maximal inhibition (IC50) (as a rule, the midpoint of a concentration-inhibition curve) amounted to 0.001 µM.

With `Cc1cc(C2(C)NC(=O)NC2=O)ccc1C(=O)N1CCN(c2nc(C)c(C)cc2C)CC1` (stereo not drawn) [Example 126, 5-methyl-5-{3-methyl-4-[4-(3,5,6-trimethylpyridin-2-yl)piperazine-1-carbonyl]phenyl}imidazolidine-2,4-dione], the IC50 was found to be 0.008 µM.

`Cc1ccc2nc(C3CCN(C(=O)c4ccc([C@@]5(C(C)C)NC(=O)NC5=O)cc4)CC3)sc2n1` [Example 222, (R)-5-isopropyl-5-{4-[4-(5-methylthiazolo[5,4-b]pyridin-2-yl)piperidine-1-carbonyl]phenyl}imidazolidine-2,4-dione]: the IC50 came out at 0.076 µM.

Turning to `Cc1ccc(OC2CCN(C(=O)c3ccc([C@@]4(C)NC(=O)NC4=O)cc3)CC2)cc1` [Example 152, (R)-5-methyl-5-[4-(4-p-tolyloxypiperidine-1-carbonyl]phenyl}imidazolidine-2,4-dione], the IC50 was found to be 0.014 µM.

In the case of `CC(C)[C@]1(c2ccc(C(=O)N3CCC(c4nc5cc(C(F)(F)F)ccc5s4)CC3)cc2)NC(=O)NC1=O` [Example 262, (R)-5-isopropyl-5-{4-[4-(5-trifluoromethylbenzothiazol-2-yl)piperidine-1-carbonyl]phenyl}imidazolidine-2,4-dione], the IC50 stood at 0.013 µM.

For `Cc1cc(F)c2c(C3CCN(C(=O)c4ccc([C@@]5(C)NC(=O)NC5=O)cc4)CC3)n[nH]c2c1` [Example 280, (R)-5-{4-[4-(4-fluoro-6-methyl-1H-indazol-3-yl)piperidine-1-carbonyl]phenyl}-5-methylimidazolidine-2,4-dione], the IC50 is less than 0.005 µM.

On to `COCC1CN(C(=O)c2ccc([C@@]3(C(C)C)NC(=O)NC3=O)cc2)CCN1c1ncc(C)cc1C` (stereo partly drawn) [Example 66, (R)-5-{4-[4-(3,5-dimethylpyridin-2-yl)-3-methoxymethylpiperazine-1-carbonyl]phenyl}-5-isopropylimidazolidine-2,4-dione], for which the half-maximal inhibitory concentration (IC50) was less than 0.005 µM.

With `Cc1cnc(N2CCN(C(=O)c3ccc([C@@]4(C(C)C)NC(=O)NC4=O)cc3)C3(CCC3)C2)c(C)c1` [Example 65, (R)-5-{4-[8-(3,5-dimethylpyridin-2-yl)-5,8-diazaspiro[3.5]nonane-5-carbonyl]phenyl}-5-isopropylimidazolidine-2,4-dione], the IC50 amounted to 0.009 µM.

In the case of `Cc1ccc2nc(C3CCN(C(=O)c4ccc([C@@]5(C(C)C)NC(=O)NC5=O)cc4)CC3)oc2n1` [Example 221, (R)-5-isopropyl-5-{4-[4-(5-methyloxazolo[5,4-b]pyridin-2-yl)piperidine-1-carbonyl]phenyl}imidazolidine-2,4-dione], the concentration for half-maximal inhibition (IC50) came out at 0.072 µM.

Consider `Cc1ccc(C(=O)C2CCN(C(=O)c3ccc([C@@]4(C)NC(=O)NC4=O)cc3)CC2)cc1` [Example 150, (R)-5-methyl-5-{4-[4-(4-methylbenzoyl)piperidine-1-carbonyl]phenyl}imidazolidine-2,4-dione], for which the IC50 was 0.025 µM.

For `COCC1(c2ccc(C(=O)N3CCC(c4coc5cc(C)cc(C)c45)CC3)cn2)CC(=O)NC1=O` (stereo not drawn) [Example 343, 3-{5-[4-(4,6-dimethyl-benzofuran-3-yl)piperidine-1-carbonyl]pyridin-2-yl}-3-methoxymethyl-pyrrolidine-2,5-dione], the IC50 is less than 0.003 µM.

Consider `CCC1(c2ccc(C(=O)N3CCC(c4cn(-c5ccc(C)cc5)nn4)CC3)cc2F)NC(=O)NC1=O` (stereo not drawn) [Example 178, 5-ethyl-5-{2-fluoro-4-[4-(1-p-tolyl-1H-[1,2,3]triazol-4-yl)piperidine-1-carbonyl]phenyl}imidazolidine-2,4-dione], for which the IC50 came out at 0.034 µM.
